Measured values taken from PMC5540273, “Progress towards a public chemogenomic set for protein kinases and a call for contributions” (PLoS ONE, 2017).

Assays:
Assay in all cases: KINOMEscan competition binding
CAMK2D = CAMK2D (Homo sapiens, UniProt Q13557); details: read-out: %Inh CAMK2D
CLK1 = CLK1 (Homo sapiens, UniProt P49759); details: read-out: %Inh CLK1
CAMK1 = CAMK1 (Homo sapiens, UniProt Q14012); details: read-out: %Inh CAMK1
CASK = target: T1, CASK (Homo sapiens, UniProt O14936); details: read-out: %Inh CASK
T1 sequence (O14936 1-926): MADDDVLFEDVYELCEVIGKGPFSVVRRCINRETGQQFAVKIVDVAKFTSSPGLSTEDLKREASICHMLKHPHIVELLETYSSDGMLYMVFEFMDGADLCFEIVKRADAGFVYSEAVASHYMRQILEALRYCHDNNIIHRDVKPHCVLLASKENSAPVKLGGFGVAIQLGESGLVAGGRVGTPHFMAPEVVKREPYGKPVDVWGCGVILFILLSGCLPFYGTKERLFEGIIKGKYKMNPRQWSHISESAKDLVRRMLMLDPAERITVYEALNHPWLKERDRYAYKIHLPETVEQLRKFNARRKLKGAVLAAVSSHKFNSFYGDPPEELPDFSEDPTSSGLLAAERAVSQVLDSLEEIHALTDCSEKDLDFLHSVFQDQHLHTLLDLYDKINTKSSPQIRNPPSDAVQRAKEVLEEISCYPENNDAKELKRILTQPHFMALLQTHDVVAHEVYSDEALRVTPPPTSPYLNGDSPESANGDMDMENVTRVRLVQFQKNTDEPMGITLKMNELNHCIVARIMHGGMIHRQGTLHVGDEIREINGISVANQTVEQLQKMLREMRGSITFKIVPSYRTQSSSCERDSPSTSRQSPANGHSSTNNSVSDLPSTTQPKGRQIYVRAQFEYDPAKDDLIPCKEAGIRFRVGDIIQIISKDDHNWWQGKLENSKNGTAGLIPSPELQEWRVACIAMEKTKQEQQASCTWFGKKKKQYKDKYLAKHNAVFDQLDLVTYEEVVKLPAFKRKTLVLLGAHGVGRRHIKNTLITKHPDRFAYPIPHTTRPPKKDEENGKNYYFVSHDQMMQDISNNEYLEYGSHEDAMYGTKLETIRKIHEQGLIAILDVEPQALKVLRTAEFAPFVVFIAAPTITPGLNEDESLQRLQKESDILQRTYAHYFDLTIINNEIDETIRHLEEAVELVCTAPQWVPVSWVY

DLK = target: T2, DLK (Homo sapiens, UniProt Q12852); details: read-out: %Inh DLK
T2 sequence (Q12852 1-859): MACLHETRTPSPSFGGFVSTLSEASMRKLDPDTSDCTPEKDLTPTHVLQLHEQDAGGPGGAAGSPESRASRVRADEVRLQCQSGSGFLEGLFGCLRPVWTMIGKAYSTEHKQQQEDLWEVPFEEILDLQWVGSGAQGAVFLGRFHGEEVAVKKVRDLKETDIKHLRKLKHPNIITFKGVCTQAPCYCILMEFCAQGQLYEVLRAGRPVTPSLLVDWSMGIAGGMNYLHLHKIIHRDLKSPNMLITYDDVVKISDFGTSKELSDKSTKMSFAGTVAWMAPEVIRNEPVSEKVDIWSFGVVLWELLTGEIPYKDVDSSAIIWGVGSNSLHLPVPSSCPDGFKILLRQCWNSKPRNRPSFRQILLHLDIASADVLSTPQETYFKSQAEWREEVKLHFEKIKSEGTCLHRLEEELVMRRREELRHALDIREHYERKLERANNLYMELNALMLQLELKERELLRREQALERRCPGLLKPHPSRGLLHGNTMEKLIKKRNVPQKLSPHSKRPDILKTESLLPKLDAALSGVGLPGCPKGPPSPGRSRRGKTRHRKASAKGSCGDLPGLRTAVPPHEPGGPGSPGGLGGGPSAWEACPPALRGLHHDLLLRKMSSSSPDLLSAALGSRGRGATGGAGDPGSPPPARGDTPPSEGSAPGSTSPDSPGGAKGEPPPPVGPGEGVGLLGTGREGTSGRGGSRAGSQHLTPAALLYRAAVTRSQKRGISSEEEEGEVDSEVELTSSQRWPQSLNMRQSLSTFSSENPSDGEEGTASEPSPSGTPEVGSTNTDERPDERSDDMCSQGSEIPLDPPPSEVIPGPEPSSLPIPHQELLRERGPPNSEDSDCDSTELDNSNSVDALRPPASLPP

FGFR2 = FGFR2 (Homo sapiens, UniProt P21802); details: read-out: %Inh FGFR2
CAMK1G = CAMK1G (Homo sapiens, UniProt Q96NX5); details: read-out: %Inh CAMK1G
AKT3 = AKT3 (Homo sapiens, UniProt Q9Y243); details: read-out: %Inh AKT3
CSNK1G3 = CSNK1G3 (Homo sapiens, UniProt Q9Y6M4); details: read-out: %Inh CSNK1G3
Sequence of CSNK1G3 (Q9Y6M4 whole entry): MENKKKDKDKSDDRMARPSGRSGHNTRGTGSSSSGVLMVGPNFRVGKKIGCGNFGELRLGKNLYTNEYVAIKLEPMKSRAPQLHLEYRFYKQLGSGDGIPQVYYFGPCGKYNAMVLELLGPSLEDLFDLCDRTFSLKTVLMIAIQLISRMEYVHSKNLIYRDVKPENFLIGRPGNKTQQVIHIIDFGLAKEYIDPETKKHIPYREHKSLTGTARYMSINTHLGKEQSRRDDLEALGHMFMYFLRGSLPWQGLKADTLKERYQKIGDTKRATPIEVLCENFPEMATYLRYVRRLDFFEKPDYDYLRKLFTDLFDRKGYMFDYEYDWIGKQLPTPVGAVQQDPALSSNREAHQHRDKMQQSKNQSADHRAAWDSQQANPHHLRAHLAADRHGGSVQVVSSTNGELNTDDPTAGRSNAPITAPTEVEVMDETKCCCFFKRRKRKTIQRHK

Sequence of CAMK2D (Q13557 whole entry): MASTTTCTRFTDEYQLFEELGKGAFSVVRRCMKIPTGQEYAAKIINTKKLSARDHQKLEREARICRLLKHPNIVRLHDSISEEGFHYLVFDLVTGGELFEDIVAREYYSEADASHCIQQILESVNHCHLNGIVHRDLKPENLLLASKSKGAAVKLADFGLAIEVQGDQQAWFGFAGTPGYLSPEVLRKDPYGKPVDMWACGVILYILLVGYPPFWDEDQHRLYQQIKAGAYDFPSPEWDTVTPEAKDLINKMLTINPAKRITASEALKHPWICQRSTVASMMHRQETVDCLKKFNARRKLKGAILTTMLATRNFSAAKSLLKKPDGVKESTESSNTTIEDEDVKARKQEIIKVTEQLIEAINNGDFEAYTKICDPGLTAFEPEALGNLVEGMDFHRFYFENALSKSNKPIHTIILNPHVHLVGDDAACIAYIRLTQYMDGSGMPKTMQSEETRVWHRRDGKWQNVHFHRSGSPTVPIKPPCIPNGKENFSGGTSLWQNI
Sequence of CAMK1 (Q14012 whole entry): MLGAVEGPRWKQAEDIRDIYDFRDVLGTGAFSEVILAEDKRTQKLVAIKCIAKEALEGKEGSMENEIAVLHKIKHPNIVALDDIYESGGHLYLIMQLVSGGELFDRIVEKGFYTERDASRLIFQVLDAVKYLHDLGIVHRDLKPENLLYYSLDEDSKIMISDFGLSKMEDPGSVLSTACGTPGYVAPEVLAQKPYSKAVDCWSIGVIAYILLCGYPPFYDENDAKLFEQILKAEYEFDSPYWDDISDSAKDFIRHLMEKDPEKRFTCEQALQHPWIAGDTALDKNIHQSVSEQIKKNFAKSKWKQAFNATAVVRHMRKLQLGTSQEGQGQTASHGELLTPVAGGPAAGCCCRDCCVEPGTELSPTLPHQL
Sequence of FGFR2 (P21802 22-821): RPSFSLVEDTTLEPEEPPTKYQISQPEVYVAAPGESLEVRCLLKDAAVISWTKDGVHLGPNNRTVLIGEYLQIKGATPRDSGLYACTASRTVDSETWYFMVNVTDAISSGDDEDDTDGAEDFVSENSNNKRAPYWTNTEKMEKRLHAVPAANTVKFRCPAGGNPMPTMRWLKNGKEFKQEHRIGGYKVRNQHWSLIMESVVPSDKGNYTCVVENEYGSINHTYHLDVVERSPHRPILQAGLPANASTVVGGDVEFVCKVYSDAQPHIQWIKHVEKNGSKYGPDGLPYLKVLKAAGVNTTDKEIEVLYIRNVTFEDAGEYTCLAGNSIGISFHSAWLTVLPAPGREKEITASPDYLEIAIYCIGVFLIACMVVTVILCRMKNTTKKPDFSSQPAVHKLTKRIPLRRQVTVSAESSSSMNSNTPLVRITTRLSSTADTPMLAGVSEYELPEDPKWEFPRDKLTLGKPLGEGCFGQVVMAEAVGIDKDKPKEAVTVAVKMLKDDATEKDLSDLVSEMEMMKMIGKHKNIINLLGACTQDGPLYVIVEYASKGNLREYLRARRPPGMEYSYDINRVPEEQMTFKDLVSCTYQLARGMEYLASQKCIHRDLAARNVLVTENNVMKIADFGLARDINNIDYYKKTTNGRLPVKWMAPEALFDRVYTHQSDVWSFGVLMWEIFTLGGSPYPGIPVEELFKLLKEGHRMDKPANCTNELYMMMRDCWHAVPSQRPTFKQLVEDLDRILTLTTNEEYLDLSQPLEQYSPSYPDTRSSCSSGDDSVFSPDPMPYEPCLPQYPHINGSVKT
Sequence of CLK1 (P49759 whole entry): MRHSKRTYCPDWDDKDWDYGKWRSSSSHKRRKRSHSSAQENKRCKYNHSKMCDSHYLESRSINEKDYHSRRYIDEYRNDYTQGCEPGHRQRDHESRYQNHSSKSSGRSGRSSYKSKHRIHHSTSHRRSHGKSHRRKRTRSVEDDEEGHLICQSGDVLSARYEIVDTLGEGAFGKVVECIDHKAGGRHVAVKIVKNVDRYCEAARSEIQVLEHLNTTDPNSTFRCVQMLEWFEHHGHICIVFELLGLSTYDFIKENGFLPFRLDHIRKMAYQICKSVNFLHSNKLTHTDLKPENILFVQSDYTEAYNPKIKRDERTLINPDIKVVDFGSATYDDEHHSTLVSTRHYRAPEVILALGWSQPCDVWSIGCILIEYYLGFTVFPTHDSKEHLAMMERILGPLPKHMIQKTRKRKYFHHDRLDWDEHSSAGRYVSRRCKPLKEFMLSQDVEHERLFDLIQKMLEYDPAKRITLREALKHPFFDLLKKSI
Sequence of CAMK1G (Q96NX5 whole entry): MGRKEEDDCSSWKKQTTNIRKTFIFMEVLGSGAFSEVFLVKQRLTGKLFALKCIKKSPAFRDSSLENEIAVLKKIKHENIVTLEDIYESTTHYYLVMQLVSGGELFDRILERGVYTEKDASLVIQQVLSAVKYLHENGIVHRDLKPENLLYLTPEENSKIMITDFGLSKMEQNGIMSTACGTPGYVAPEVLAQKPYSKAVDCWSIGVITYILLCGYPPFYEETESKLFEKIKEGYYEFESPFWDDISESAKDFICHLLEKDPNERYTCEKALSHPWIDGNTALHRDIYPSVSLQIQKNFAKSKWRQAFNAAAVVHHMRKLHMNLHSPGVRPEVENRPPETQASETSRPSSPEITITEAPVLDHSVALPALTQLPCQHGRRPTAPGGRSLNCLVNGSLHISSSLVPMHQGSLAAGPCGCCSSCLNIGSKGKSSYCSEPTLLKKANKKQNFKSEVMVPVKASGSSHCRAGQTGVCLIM
Sequence of AKT3 (Q9Y243 whole entry): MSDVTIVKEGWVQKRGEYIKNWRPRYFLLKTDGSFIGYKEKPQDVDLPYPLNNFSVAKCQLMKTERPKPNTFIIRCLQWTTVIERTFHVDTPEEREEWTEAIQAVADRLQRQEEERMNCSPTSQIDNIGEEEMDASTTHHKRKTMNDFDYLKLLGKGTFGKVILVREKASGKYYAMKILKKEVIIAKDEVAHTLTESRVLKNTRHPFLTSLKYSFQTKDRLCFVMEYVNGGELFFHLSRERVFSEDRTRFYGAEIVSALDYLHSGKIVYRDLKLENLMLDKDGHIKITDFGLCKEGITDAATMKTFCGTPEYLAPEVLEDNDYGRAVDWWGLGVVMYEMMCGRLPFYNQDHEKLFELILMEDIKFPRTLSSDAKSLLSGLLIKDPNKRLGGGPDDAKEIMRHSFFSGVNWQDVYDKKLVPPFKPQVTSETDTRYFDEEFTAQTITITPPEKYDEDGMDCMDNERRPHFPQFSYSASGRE

Cn1cc(-c2cnc(N)c3c(-c4ccc5c(c4)CCN5C(=O)Cc4ccccc4)csc23)cn1 [UNC10225012A]
inhibition at 1 µM (CAMK2D): 0% | inhibition at 1 µM (CLK1): 15% | inhibition at 1 µM (CAMK1): 0% | inhibition at 1 µM (CASK): 23% | inhibition at 1 µM (DLK): 0% | inhibition at 1 µM (FGFR2): 40% | inhibition at 1 µM (CAMK1G): 0% | inhibition at 1 µM (AKT3): 8% | inhibition at 1 µM (CSNK1G3): 22%

O=c1cc(N2CCOCC2)nc2n(Cc3cccc(Cl)c3Cl)c(C3CC3)nn12 [UNC10225469A]
inhibition at 1 µM (CAMK2D): 18% | inhibition at 1 µM (CLK1): 27% | inhibition at 1 µM (CAMK1): 0% | inhibition at 1 µM (CASK): 26% | inhibition at 1 µM (DLK): 0% | inhibition at 1 µM (FGFR2): 1% | inhibition at 1 µM (CAMK1G): 5% | inhibition at 1 µM (AKT3): 0% | inhibition at 1 µM (CSNK1G3): 23%

COc1cccc(OC)c1C(=O)Nc1cccc(-c2nn3ccccc3c2-c2ccnc(Nc3cccc(F)c3)n2)c1 [UNC10225310A]
inhibition at 1 µM (CAMK2D): 0% | inhibition at 1 µM (CLK1): 21% | inhibition at 1 µM (CAMK1): 19% | inhibition at 1 µM (CASK): 15% | inhibition at 1 µM (DLK): 0% | inhibition at 1 µM (FGFR2): 0% | inhibition at 1 µM (CAMK1G): 0% | inhibition at 1 µM (AKT3): 0% | inhibition at 1 µM (CSNK1G3): 3%

CS(=O)(=O)Cc1ccc(Nc2nccc(-c3c(-c4cccc(NC(=O)C5CCCCC5)c4)nn4ncccc34)n2)cc1 [UNC10225159A]
inhibition at 1 µM (CAMK2D): 0% | inhibition at 1 µM (CLK1): 10% | inhibition at 1 µM (CAMK1): 0% | inhibition at 1 µM (CASK): 34% | inhibition at 1 µM (DLK): 41% | inhibition at 1 µM (FGFR2): 41% | inhibition at 1 µM (CAMK1G): 0% | inhibition at 1 µM (AKT3): 0% | inhibition at 1 µM (CSNK1G3): 4%

Cc1ccc(NC(=O)Nc2cccc(C(F)(F)F)c2)cc1 [UNC10225187A]
inhibition at 1 µM (CAMK2D): 8% | inhibition at 1 µM (CLK1): 3% | inhibition at 1 µM (CAMK1): 7% | inhibition at 1 µM (CASK): 15% | inhibition at 1 µM (DLK): 0% | inhibition at 1 µM (FGFR2): 0% | inhibition at 1 µM (CAMK1G): 10% | inhibition at 1 µM (AKT3): 0% | inhibition at 1 µM (CSNK1G3): 0%
